The structures appear in SMILES notation. pEC50: −log10 of the molar value.

The values that follow come from patent publication US10682323B2, “Therapeutic agent for glaucoma” (TOA EIYO LTD., priority 2016, dated 2020).

The conditions of data set [1]: as disclosed in Patent Literature 1 (WO 2015/095515 A); cited from earlier work.
Data set [2] is described as follows: Determination of Log D value (flask shaking method). The class given is physicochemical. The note with it: pH 6.8; partition between n-octanol and second solution for the disintegration test (16th revised Japanese Pharmacopoeia), room temperature. The protocol: More specifically, the Log D is more preferably 1.6 or more and 2.3 or less, still more preferably 1.8 or more and 2.2 or less, and particularly preferably 1.8 or more and 2.1 or less. Here, the Log D value in the present invention is a compound partition coefficient between n-octanol and a second solution of a disintegration test of the 16th revised Japanese Pharmacopoeia.
The Log D value was determined using a flask shaking method, where a test compound partition coefficient between n-octanol and the second solution for the disintegration test defined in the 16th revised Japanese Pharmacopoeia was calculated. Specifically, in a microtube containing 2 mg of the test compound, n-octanol (0.25 mL) and the second solution for the disintegration test (0.25 mL) were mixed. The tube was shaken in a multi shaker at room temperature for 60 minutes, and allowed to stand until the two phases were completely separated. In the microtube, 10 μL of an n-octanol phase was diluted with 190 μL of 85% methanol and mixed, thereby obtaining an organic phase test solution. 100 μL of the second solution phase for the disintegration test was diluted with 100 μL of 50% methanol, and mixed, thereby obtaining an aqueous phase test solution. The organic phase test solution and the aqueous phase test solution were filtered, respectively, and the concentration of the test compound in these test solutions were measured, using high performance liquid chromatography. Then, from the measured concentration and dilution rate, the Log D was calculated.
That is, the Log D of the present specification is represented by the following equation: Log D=Log10([concentration of test compound in organic phase test solution]/[concentration of test compound in aqueous phase test solution])+1 [Equation 1]
The second solution for the disintegration test herein refers to, as defined in the 16th revised Japanese Pharmacopoeia, a liquid obtained by adding to 250 mL of a 0.2 mol/L potassium dihydrogenphosphate reagent, 118 mL of a 0.2 mol/L sodium hydroxide reagent, and water for adjusting to 1000 mL volume.

The target of another data set is T1, human sGC (Homo sapiens, UniProt Q02153).
T1 construct: expressed in transfected cells; host or cells: CHO-K1 cells (Chinese hamster ovary), stably co-expressing mouse CNGA2 as the calcium read-out channel
T1 sequence (Q02153 1-619): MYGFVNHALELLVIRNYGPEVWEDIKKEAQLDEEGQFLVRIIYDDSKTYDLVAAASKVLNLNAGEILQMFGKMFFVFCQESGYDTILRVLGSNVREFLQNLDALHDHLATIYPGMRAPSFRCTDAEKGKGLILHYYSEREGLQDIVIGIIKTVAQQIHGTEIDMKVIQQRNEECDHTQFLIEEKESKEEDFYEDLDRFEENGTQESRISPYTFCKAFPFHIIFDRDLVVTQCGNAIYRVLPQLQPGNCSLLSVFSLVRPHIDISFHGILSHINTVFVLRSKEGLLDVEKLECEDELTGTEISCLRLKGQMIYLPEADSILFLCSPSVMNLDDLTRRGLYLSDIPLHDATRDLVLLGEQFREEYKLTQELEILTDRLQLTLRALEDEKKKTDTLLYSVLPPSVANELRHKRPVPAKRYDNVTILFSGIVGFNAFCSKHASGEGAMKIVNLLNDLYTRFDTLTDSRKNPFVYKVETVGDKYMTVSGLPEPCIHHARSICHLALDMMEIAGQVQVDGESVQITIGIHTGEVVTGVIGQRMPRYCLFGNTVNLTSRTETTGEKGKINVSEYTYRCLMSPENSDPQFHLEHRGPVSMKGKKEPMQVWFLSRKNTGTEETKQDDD
T1 sequence (Q02108 1-690 partner): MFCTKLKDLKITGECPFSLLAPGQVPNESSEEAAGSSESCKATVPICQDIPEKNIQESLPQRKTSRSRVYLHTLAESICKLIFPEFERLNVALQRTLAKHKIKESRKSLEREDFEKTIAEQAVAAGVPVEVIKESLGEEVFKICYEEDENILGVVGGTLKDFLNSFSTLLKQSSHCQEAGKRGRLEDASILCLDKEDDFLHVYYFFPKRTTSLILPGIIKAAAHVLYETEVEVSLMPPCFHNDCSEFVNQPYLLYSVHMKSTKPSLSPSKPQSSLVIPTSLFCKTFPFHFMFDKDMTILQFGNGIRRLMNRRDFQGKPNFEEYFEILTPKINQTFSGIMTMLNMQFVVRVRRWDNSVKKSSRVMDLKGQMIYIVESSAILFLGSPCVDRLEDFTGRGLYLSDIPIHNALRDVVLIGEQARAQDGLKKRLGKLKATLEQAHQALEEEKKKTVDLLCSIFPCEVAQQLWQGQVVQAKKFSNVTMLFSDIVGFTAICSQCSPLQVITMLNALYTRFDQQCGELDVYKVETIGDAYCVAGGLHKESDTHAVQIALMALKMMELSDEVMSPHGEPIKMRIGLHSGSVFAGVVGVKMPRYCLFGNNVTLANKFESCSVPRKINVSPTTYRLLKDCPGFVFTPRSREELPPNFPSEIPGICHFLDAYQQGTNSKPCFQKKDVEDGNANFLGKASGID
The data set can be described thus: Measurement of sGC activating effect in CHO-K1 cells stably expressing human sGC and mouse CNGA2. The class given is cell-based. The note with it: CHO-K1 cells expressing human sGC and mouse CNGA2, Fura2 calcium readout, 10 μmol/L ODQ in assay buffer. The method, then: Chinese Hamster ovary cells (CHO-K1 cells) modified for stably expressing human sGC α subunit and β subunit, and a mouse cyclic nucleotide gated channel (CNGA2) were used in the test.
The CHO-K1 cells stably expressing human sGC and mouse CNGA2 were cultured at 37° C. in a F-12 medium supplemented with 10% (v/v) fetal bovine serum (FBS), penicillin (100 U/mL), streptomycin (100 μg/mL), G418 (250 μg/mL), and Zeocin (250 μg/mL). The cells were suspended in a culture medium, seeded in a 96 well plate, and cultured at 37° C. for 24 hours. The cells were washed with an assay buffer 1 (140 mmol/L of sodium chloride, 5 mmol/L of potassium chloride, 0.5 mmol/L of magnesium chloride, 0.01 mmol/L of calcium chloride, 10 mmol/L of glucose, 0.4 mmol/L of magnesium sulfate, 10 mmol/L of 4-(2-hydroxyethyl)piperazine-1-yl ethanesulfonic acid, 125 μmol/L of sulfinpyrazone, pH 7.4), and then an indicator solution in which Fura2-AM as a fluorescent Ca2+ indicator is dissolved in assay buffer 1 at a concentration of 5 μmol/L was added thereto, and cultured at 37° C. for 60 minutes. The culture medium was removed, the cells were washed with assay buffer 1, the test compound solution was added thereto, and cultured at room temperature for 10 minutes. The plate was mounted on a fluorescence microplate reader (FlexStation II, available from Molecular Devices) with setting of excitation wavelengths of 340 and 380 nm and a detection wavelength of 510 nm, an intracellular calcium concentration was measured as a fluorescent intensity ratio obtained from each excitation wavelength.
In this test, the solution of the test compound was prepared by dissolving each test compound in DMSO at a concentration of 10 mmol/L, and then diluting the solution with assay buffer 2 (140 mmol/L of sodium chloride, 5 mmol/L of potassium chloride, 0.5 mmol/L of magnesium chloride, 1 mmol/L of calcium chloride, 10 mmol/L of glucose, 0.4 mmol/L of magnesium sulfate, 10 mmol/L of 4-(2-hydroxyethyl)piperazine-1-yl ethanesulfonic acid, 125 μmol/L of sulfinpyrazone, 100 μmol/L of isobutylmethylxanthine, 10 μmol/L of 1H-[1,2,4]-oxadiazole [4,3-a]quinoxaline-1-on (hereinafter, referred to as ODQ), pH 7.4), in order to adjust the concentration of 10 μmol/L for testing. As a control solution, a DMSO diluted solution was used, instead of the test compound solution.
The activity of the test compound was calculated as an increase rate (%) of the sGC activity in the test compound solution relative to the sGC activity in the control solution, by dividing a fluorescent intensity ratio in adding the test compound by a fluorescent intensity ratio of the control solution, and subtracting the sGC activity in the control solution (100%) therefrom. An EC50 value was calculated from the activity of the test compound at concentrations of 0.0001, 0.001, 0.003, 0.01, 0.03, 0.1, 1, and 10 μmol/L, using a 4 parameter losgistic model from Assay Explorer (available from Dssault Systèmes BIOVIA).

With `O=C(O)CCCCN(CCc1ccccc1OCc1ccc(CCc2ccccc2)cc1)Cc1ccc(C(=O)O)cc1` [Cinaciguat], the “intraocular pressure lowering action” value in data set [1] is given as “low intraocular pressure lowering action”.
For `CC(C)(C)c1ccccc1COc1ccccc1CCN(CCCCC(=O)O)C1CCCc2cc(C(=O)O)ccc21` (centres unmarked) [Compound No. 15, 5-[N-[2-[2-(2-tert-butylbenzyloxy)phenyl]ethyl]-N-(4-carboxybutyl)amino]-5,6,7,8-tetrahydronaphthalene-2-carboxylic acid], in data set [2], the logD (in general, the decadic logarithm of the distribution of all forms, ionised or not, between an organic phase and buffer at a given pH) was found to be 1.95. The pEC50 (in general, −log10 of the EC50, conventionally taken in molar units) at human sGC is 7.87.
Taken in the same sequence, the figures for `O=C(O)CCCCN(CCc1ccccc1OC[C@@H]1CCc2ccccc2C1)C1CCCc2cc(C(=O)O)ccc21` (stereo partly drawn) [Compound No. 16, 5-[N-(4-carboxybutyl)-N-[2-[2-((2R)-1,2,3,4-tetrahydronaphthalene-2-ylmethoxy)phenyl]ethyl]amino]-5,6,7,8-tetrahydronaphthalene-2-carboxylic acid] were 1.99 and 8.12.
The matching figures for `O=C(O)CCCCN(CCc1ccccc1OC[C@H]1CCc2ccccc2C1)C1CCCc2cc(C(=O)O)ccc21` (stereo partly drawn) [Compound No. 17, 5-[N-(4-carboxybutyl)-N-[2-[2-((2S)-1,2,3,4-tetrahydronaphthalene-2-ylmethoxy)phenyl]ethyl]amino]-5,6,7,8-tetrahydronaphthalene-2-carboxylic acid]: 2 and 7.96.
In data set [2], `O=C(O)CCCCN(CCc1ccccc1OCc1ccc2c(c1)CCCC2)C1CCOc2cc(C(=O)O)ccc21` (centres unmarked) [Compound No. 18, 4-[N-(4-carboxybutyl)-N-[2-[2-(1,2,3,4-tetrahydronaphthalene-6-ylmethoxy)phenyl]ethyl]amino]-chromane-7-carboxylic acid] showed a logD of 2.14. Besides, the pEC50 on human sGC is 8.54.
Taken in the same sequence, the figures for `O=C(O)CCCCN(CCc1ccccc1OCc1cc2c(s1)CCCC2)C1CCCc2cc(C(=O)O)ccc21` (centres unmarked) [Compound No. 19, 5-[N-(4-carboxybutyl)-N-[2-[2-(4,5,6,7-tetrahydrobenzo[b]thiophene-2-ylmethoxy)phenyl]ethyl]amino]-5,6,7,8-tetrahydronaphthalene-2-carboxylic acid] were 1.74 and 7.47.
Taken in the same sequence, the figures for `O=C(O)CCCCN(CCc1ccccc1OCc1ccc2c(c1)CCCC2)C1CCCc2cc(C(=O)O)ccc21` (centres unmarked) [Compound No. 20, 5-[N-(4-carboxybutyl)-N-[2-[2-(1,2,3,4-tetrahydronaphthalene-6-ylmethoxy)phenyl]ethyl]amino]-5,6,7,8-tetrahydronaphthalene-2-carboxylic acid] were 1.87 and 8.40.
The matching figures for `O=C(O)CCCCN(CCc1ccccc1OCc1ccc(C#CC2CC2)cc1)C1CCCc2cc(C(=O)O)ccc21` (centres unmarked) [Compound No. 21, 5-[N-(4-carboxybutyl)-N-[2-[2-[4-(2-cyclopropylethynyl)benzyloxy]phenyl]ethyl]amino]-5,6,7,8-tetrahydronaphthalene-2-carboxylic acid]: 2.06 and 7.80.
`O=C(O)CCCCN(CCc1ccccc1OCc1ccc(COc2ccccc2)cc1)C1CCCc2cc(C(=O)O)ccc21` (centres unmarked) [Compound No. 22, 5-[N-(4-carboxybutyl)-N-[2-[2-(4-phenoxymethylbenzyloxy)phenyl]ethyl]amino]-5,6,7,8-tetrahydronaphthalene-2-carboxylic acid] came in with a log distribution coefficient (logD) in data set [2] of 2.18. Also, the negative-log EC50 (pEC50) on human sGC is 8.05.
With `O=C(O)CCCCN(Cc1ccc(C(=O)O)cc1)C[C@H](OCc1ccc(Oc2ccccc2)cc1)c1cccc(Cl)c1` [Compound No. 23, (−)-4-([N-(4-carboxybutyl)-N-[(2R)-2-(3-chlorophenyl)-2-[4-(phenyloxy)benzyloxy]ethyl]amino]methyl)benzoic acid], in data set [2], the logD came out at 2.35. For the same molecule, the pEC50 at human sGC was 8.61.
Regarding `O=C(O)CCCCN(CCc1ccccc1OCc1ccc(OCc2ccccc2)cc1)C1CCOc2cc(C(=O)O)ccc21` (centres unmarked) [Compound No. 24, 4-[N-[2-[2-(4-benzyloxybenzyloxy)phenyl]ethyl]-N-(4-carboxybutyl)amino]-chromane-7-carboxylic acid], the logD in data set [2] was determined as 2.4. The negative-log EC50 (pEC50) at human sGC was 8.06.
Taken in the same sequence, the figures for `O=C(O)CCCCN(CCc1ccccc1OCc1ccc(OCc2ccccc2)cc1)C1CCCc2cc(C(=O)O)ccc21` (centres unmarked) [Compound No. 26, 5-[N-[2-[2-(4-benzyloxybenzyloxy)phenyl]ethyl]amino-N-(4-carboxybutyl)]-5,6,7,8-tetrahydronaphthalene-2-carboxylic acid] were 2.24 and 7.81.
